For assay [1], the system named is SW480 cells. The experiment in a line: Cell Proliferation Assay, SW480 (CellTiter-Glo 2.0 viability). It counts as cell-based. As to conditions: Homo sapiens; SW480 colon cancer (KRAS G12V mutation); 72 hours. The protocol: (§1) Test Example 3: Cell Proliferation Assay
(§2) Cell viability testing of test compounds in AsPC-1 pancreatic cancer (KRAS G12D mutation) or SW480 colon cancer (KRAS G12V mutation) cells for 72 hours
(§3) The reference compound Staurosporine was purchased from Sigma-Aldrich (Saint Louis, MI), and CellTiter-Glo® 2.0 Luminescent cell viability assay reagent (cat #G9243) was purchased from Promega (Madison, WI). AsPC-1 and SW480 cell lines were purchased from American Type Culture Collection (Manassas, VA). AsPC-1 cells were cultured with RPMI-1640 (ATCC, cat #30-2001) and SW480 cells were cultured with DMEM (ATCC cat #30-2002).
(§4) A medium supplemented with 10% FBS (Sigma-Aldrich, cat #F2442) and 100 µg/mL of penicillin-streptomycin (Sigma-Aldrich, cat #P4333) was used. Cells were cultured at 37 °C in a humidified atmosphere of 5% CO2 and 95% air.
(§5) • 1. The test compound and reference compound, Staurosporine were dissolved in DMSO solution to prepare 20 mM (test compound) and 10 mM (control compound, Staurosporine) in the Source Plate and diluted with DMSO to 3-fold and 10 doses. • 2. From the Source Plate, 10 volumes of 125 nL test compound or 25 nL reference compound were dispensed into wells of a 384-well culture plate (VWR, cat #82050-076) using Echo 655. • 3. 25 μL of culture medium including 2000 AsPC-1 or SW480 cells was dispensed into each 384-well cell culture plate. • 4. Cells were cultured with the compound for 72 hours at 37 °C and 5% CO2 conditions. • 5. 25 μL of CellTiter-Glo 2.0 reagent was added to each well of the plate. • 6. The contents were mixed for 2 minutes on an orbital shaker, and the luminescence signal was stabilized at room temperature for 15 minutes. • 7. Luminescence signals were measured with an Envision 2104 Multilabel Reader (PerkinElmer, Santa Clara, CA), and the number of surviving cells was determined through quantification of ATP present in each culture. • 8. IC50 values were calculated based on the Sigmoidal dose-response equation in the GraphPad Prism 4 program.
(ATP-based viability assays read luminescence as a measure of living cells.)

In assay [2] the test system is AsPC-1 cells. The experiment in a line: Cell Proliferation Assay, AsPC-1 (CellTiter-Glo 2.0 viability). Type of assay: cell-based. The note with it: AsPC-1 pancreatic cancer (KRAS G12D mutation). The procedure:
as §1, §2, §3, §4, §5

Usually IC50 stands for the concentration that inhibits the measured activity by half. Read a low IC50 as inhibition by little substance. On to `C#Cc1c(F)ccc2cc(O)cc(-c3nc4c5c(nc(OC[C@@]67CCCN6C[C@H](F)C7)nc5c3F)N([C@H](C)c3cccnc3N)C[C@H](C)O4)c12` [Example 6a, 4-((S)-10-((R)-1-(2-aminopyridin-3-yl)ethyl)-4-fluoro-2-(((2R,7aS)-2-fluorotetrahydro-1H-pyrrolizin-7a(5H)-yl)methoxy)-8-methyl-9,10-dihydro-8H-7-oxa-1,3,6,10-tetraazacyclohepta[de]naphthalen-5-yl)-5-ethynyl-6-fluoronaphthalen-2-ol], for which the IC50 in assay [1] lay within 1000 to 10000 nM; in assay [2] (Homo sapiens, ASPC1, 72 h), 1000 to 10000 nM. With `C#Cc1c(F)ccc2cc(O)cc(-c3nc4c5c(nc(OCC6(CN7CCOCC7)CC6)nc5c3F)N(C(C)c3cccnc3N)CCO4)c12` (centres unmarked) [Example 12, 4-(10-(1-(2-aminopyridin-3-yl)ethyl)-4-fluoro-2-((1-(morpholinomethyl)cyclopropyl)methoxy)-9,10-dihydro-8H-7-oxa-1,3,6,10-tetraazacyclohepta[de]naphthalen-5-yl)-5-ethynyl-6-fluoronaphthalen-2-ol], the IC50 is under 1000 nM in assay [1] and 1000 to 10000 nM in assay [2] (Homo sapiens, ASPC1, 72 h). In the case of `C#Cc1c(F)ccc2cc(O)cc(-c3nc4c5c(nc(OC[C@@]67CCCN6C[C@H](F)C7)nc5c3F)N([C@H](C)c3cccnc3N)CCO4)c12` [Example 13a, 4-(10-((R)-1-(2-aminopyridin-3-yl)ethyl)-4-fluoro-2-(((2R,7aS)-2-fluorotetrahydro-1H-pyrrolizin-7a(5H)-yl)methoxy)-9,10-dihydro-8H-7-oxa-1,3,6,10-tetraazacyclohepta[de]naphthalen-5-yl)-5-ethynyl-6-fluoronaphthalen-2-ol], the IC50 was under 1000 nM in assay [1] and under 1000 nM in assay [2] (Homo sapiens, ASPC1, 72 h). On to `CCc1c(F)ccc2cc(O)cc(-c3nc4c5c(nc(OC[C@@]67CCCN6C[C@H](F)C7)nc5c3F)N([C@H](C)c3cccnc3N)CCO4)c12` [Example 14a, 4-(10-((R)-1-(2-aminopyridin-3-yl)ethyl)-4-fluoro-2-(((2R,7aS)-2-fluorotetrahydro-1H-pyrrolizin-7a(5H)-yl)methoxy)-9,10-dihydro-8H-7-oxa-1,3,6,10-tetraazacyclohepta[de]naphthalen-5-yl)-5-ethyl-6-fluoronaphthalen-2-ol], for which the IC50 is under 1000 nM in assay [1] and under 1000 nM in assay [2] (Homo sapiens, ASPC1, 72 h). In the case of `C#Cc1c(F)ccc2cc(O)cc(-c3nc4c5c(nc(OC[C@@]67CCCN6C[C@H](F)C7)nc5c3F)N(C(C)c3ccccc3N)CCO4)c12` (stereo partly drawn) [Example 20, 4-(10-(1-(2-aminophenyl)ethyl)-4-fluoro-2-(((2R,7aS)-2-fluorotetrahydro-1H-pyrrolizin-7a(5H)-yl)methoxy)-9,10-dihydro-8H-7-oxa-1,3,6,10-tetraazacyclohepta[de]naphthalen-5-yl)-5-ethynyl-6-fluoronaphthalen-2-ol], the IC50 in assay [1] was under 1000 nM.

In assay [2] (Homo sapiens, ASPC1, 72 h), `CCc1c(F)ccc2cc(O)cc(-c3nc4c5c(nc(OC[C@@]67CCCN6C[C@H](F)C7)nc5c3F)N(C)CCO4)c12` [Example 28, 5-ethyl-6-fluoro-4-(4-fluoro-2-(((2R,7aS)-2-fluorotetrahydro-1H-pyrrolizin-7a(5H)-yl)methoxy)-10-methyl-9,10-dihydro-8H-7-oxa-1,3,6,10-tetraazacyclohepta[de]naphthalen-5-yl)naphthalen-2-ol] displayed a 50% inhibitory concentration (IC50) of over 10000 nM. As for `CC(c1cccnc1N)N1CCOc2c(Cl)c(-c3ccc(F)c4sc(N)c(C#N)c34)c(F)c3nc(OC[C@@]45CCCN4C[C@H](F)C5)nc1c23` (stereo partly drawn) [Example 29b, (4S)-2-amino-4-(4-(1-(2-aminopyridin-3-yl)ethyl)-8-chloro-10-fluoro-2-(((2R,7aS)-2-fluorotetrahydro-1H-pyrrolizin-7a(5H)-yl)methoxy)-5,6-dihydro-4H-[1,4]oxazepino[5,6,7-de]quinazolin-9-yl)-7-fluorobenzo[b]thiophene-3-carbonitrile], the IC50 in assay [2] (72 hours) lay in the range of 1000 to 10000 nM.

The values above are taken from patent publication US20260374781A1, “NOVEL TRIHETEROCYCLIC COMPOUNDS” (IDENCE CO., LTD., priority 2022, published 2026).
